Here are results for two molecules from publication PMC4128814, “A High Throughput Screen Identifies Potent and Selective Inhibitors to Human Epithelial 15-Lipoxygenase-2” (PLoS ONE, 2014).

Where only a bound is given, the exact number is not on record here.

Experiment [1] addresses T1, 15-LOX-1 (Homo sapiens, UniProt P16050).
T1 construct: His6 (N); made in house
T1 sequence (P16050 1-662): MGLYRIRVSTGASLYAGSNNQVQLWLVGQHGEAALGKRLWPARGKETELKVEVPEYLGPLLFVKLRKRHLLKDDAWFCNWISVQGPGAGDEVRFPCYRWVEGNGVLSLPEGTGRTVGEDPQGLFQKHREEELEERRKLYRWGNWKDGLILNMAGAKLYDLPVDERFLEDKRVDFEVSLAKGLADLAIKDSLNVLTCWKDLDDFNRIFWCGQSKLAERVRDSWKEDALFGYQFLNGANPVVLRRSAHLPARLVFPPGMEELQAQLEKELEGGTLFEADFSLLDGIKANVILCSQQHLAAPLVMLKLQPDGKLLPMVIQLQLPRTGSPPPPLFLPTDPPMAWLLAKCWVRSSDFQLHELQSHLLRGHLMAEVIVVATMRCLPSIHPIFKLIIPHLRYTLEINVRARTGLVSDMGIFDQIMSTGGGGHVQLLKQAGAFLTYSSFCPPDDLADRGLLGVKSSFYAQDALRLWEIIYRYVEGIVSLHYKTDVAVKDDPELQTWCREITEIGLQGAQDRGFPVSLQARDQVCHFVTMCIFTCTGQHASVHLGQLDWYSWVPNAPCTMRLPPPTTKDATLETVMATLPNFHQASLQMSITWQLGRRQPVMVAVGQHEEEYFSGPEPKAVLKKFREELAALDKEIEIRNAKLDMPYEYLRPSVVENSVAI
Nature of the experiment: Lipoxygenase UV-Vis assay, 15-LOX-1. In kind it is biochemical. The following applies: estimated from one inhibitor point at 20 µM; 10 µM AA. The source says:
Different lipoxygenases, such as 15-LOX-1, 15-LOX-2, and 12-LOX were expressed as N-terminal His6-tagged proteins and were purified via immobilized metal affinity chromatography (IMAC) using an Ni-NTA resin for 15-LOX-1 [12], and 15-LOX-2 [17], and a Ni-IDA resin for 12-LOX [18]. […] Human leukocyte 5-lipoxygenase (5-LOX) was expressed as a non-tagged protein and used as a crude ammonium sulfate protein fraction, as published previously, [20].
The inhibitor compounds were screened initially using one concentration point at 25 µM on a Perkin-Elmer Lambda 40 UV/Vis spectrophotometer. […] The reactions were initiated by adding 200 nM 15-LOX-2, 30 nM 12-LOX, 40 nM 15-LOX-1, or approximately 100–300 nM (5–10 µL) of 5-LOX crude extract to a cuvette with 2 mL reaction buffer, constantly stirred using a magnetic stir bar at room temperature (22°C). Reaction buffers used for various LOX isozymes were as follows: 25 mM HEPES (pH 7.3), 0.3 mM CaCl2, 0.1 mM EDTA, 0.2 mM ATP, 0.01% Triton X-100, 10 µM AA for the crude, ammonium sulfate precipitated 5-LOX; and 25 mM HEPES (pH 7.5), 0.01% Triton X-100, 10 µM AA for 15-LOX-2, 15-LOX-1, and 12-LOX. […] The data were then plotted against inhibitor concentration, followed by a hyperbolic saturation curve fit (assuming total enzyme concentration [E]≪IC50). […] All inhibitors were stored at −20°C in DMSO. […]

Experiment [2] concerns the target T2, human recombinant COX-2 (Homo sapiens, UniProt P35354).
T2 construct: purchased Cayman Chemical
T2 sequence (P35354 18-604): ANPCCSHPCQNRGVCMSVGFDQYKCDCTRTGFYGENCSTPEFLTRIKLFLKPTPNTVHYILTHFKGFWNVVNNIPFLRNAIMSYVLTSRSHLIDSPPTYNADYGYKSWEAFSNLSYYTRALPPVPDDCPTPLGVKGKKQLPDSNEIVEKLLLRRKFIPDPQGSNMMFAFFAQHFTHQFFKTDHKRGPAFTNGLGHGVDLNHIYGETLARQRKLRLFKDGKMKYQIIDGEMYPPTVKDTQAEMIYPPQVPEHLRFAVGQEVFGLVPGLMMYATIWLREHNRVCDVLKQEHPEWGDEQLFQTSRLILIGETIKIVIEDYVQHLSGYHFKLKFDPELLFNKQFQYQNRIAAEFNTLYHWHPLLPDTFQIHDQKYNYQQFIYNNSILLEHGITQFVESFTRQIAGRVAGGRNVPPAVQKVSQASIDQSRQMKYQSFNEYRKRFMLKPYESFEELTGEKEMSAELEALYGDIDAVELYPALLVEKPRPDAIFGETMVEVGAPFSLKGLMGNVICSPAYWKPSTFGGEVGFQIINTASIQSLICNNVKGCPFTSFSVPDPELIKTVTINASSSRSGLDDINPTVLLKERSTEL
Nature of the experiment: Cyclooxygenase assay (oxygen electrode), COX-2. In kind it is biochemical. The following applies: estimated from one inhibitor point at 20 µM; 100 µM AA. The procedure: Cyclooxygenase activity assay was performed as previously described. Approximately 3 µg of either ovine COX-1 (COX-1) or human recombinant COX-2 (COX-2) (Cayman Chemical) were added to buffer containing 0.1 M Tris-HCl buffer (pH 8.0), 5 mM EDTA, 2 mM phenol and 1 µM hematin at 37°C. The selected inhibitors were added to the reaction cell, followed by an incubation of 5 minutes with either of the COX enzymes. The reaction was then initiated by adding 100 µM AA in the reaction cell, as indicated in enzymatic protocol (Cayman Chemicals). Data were collected using a Hansatech DW1 oxygen electrode and the consumption of oxygen was recorded. Indomethacin and the solvent (DMSO), were used as positive and negative controls, respectively, and the percent inhibition of the enzyme was calculated by comparing the rates of the samples to the controls.

As to `Cc1ccc(CSc2ncn(-c3ccccc3)n2)cc1` [MLS000536924], the IC50 in experiment [1] is above 50 µM; in experiment [2] it was above 100 µM.

With `Clc1ccc(-c2nnc(C3CCCCC3)o2)cc1` [MLS000545091], the IC50 in experiment [1] and in experiment [2] was above 100 µM each time.

In general, IC50 refers to the concentration at which inhibition is half-maximal.
